From PMC3964211, “Pharmacokinetic modeling optimizes inhibition of the ‘undruggable’ EWS-FLI1 transcription factor in Ewing Sarcoma” (Oncotarget, 2013)

Assays:
[1] = Plasma concentration after IP injection of various formulations in C57BL/6 mice; format: in vivo; settings: C57BL/6 mouse plasma, 20 minutes after IP 200 mg/kg racemic mixture, 10% w/v sucrose, 1% v/v Tween 80, 5% v/v ethanol in DI water, mean ±SD, five mice
Description: The poor oral bioavailability determined from the rat study caused us to focus on IV delivery. Since mice often metabolize compounds differently from rats, we also evaluated the intraperitoneal (IP) PK profle and compared it to the IV profile. We determined pharmacokinetics in C57BL/6 mice given IV (Figure 2A) or IP (Figure 2B) administrations of 75 mg/kg YK-4-279, which was the maximal solubility of compound in 20% Cremophor EL. […] In addition, drug levels in tumor were measured using SCID/bg mice with orthotopic xenografts that were treated with daily IV injections of (S)-YK-4-279 for 6 days. […] In order to determine (S)-YK-4-279 levels in the tumors, the mice were euthanized 2 hours following the fnal IV bolus dose for harvest of both tumors and plasma. […] Since the IV treatment was ineffective at reducing tumor growth, despite measurable levels in the tumor tissue, models of IP administration were used to design follow-up effcacy studies.
The plasma and tumor sample analysis was performed using calibration standards and Quality Control (QC) samples prepared in control rat or mouse plasma and tumor tissues. Plasma and tumor calibration standards were prepared from stock solutions of YK-4-279. The calibration standards, blanks, QC samples, and study samples were then processed by solid-liquid extraction (SLE) followed by analysis using liquid chromatography with mass spectrometry (LC-MS). The LC-MS systems used for the analysis of YK-4-279 was composed of Shimadzo prominence pump and auto-sampler (Kyoto, Japan), a Sciex API 5000 MS (Toronto, Ontario), with turbo ion spary in the positive ion mode. The samples for the analysis of total YK-4-279 were injected into a 50 × 2 mm Gemini- NX, 5 ¼m column (Phenomenex, Torrance, CA). The samples for the analysis of the specific enantiomers of YK-4-279 were injected into a 150 × 2 mm Lux Cellulose-2, 3 ¼m Phenomenex column. The transitions monitored were 366 amu to 135 amu for YK-4-279 and 369 amu to 138 amu for the YK-4-279-d3 internal standard. YK-4-279 concentrations were calculated using peak area response ratios and a regression equation constructed from the concentrations and peak area response ratios of the calibration standards. The lower limit of quantitation was 5.0 ng/mL in plasma and […] in tumor tissue. The concentration-time profiles were evaluated by compartmental modeling and non-compartmental analysis using WinNonlin (Pharsight Corporation, Mountain View, CA). The PK parameters obtained from the compartmental modeling were used in simulations to identify optimal dose level and dosing schedule for maintaining plasma concentration of (S)-YK-4-279 above 3 ¼M.

A4573 xenografts = assay: IV efficacy experiment, A4573 xenografts, with plasma and tumor drug levels; format: in vivo, SCID/bg mice
Description: (§1) The poor oral bioavailability determined from the rat study caused us to focus on IV delivery. Since mice often metabolize compounds differently from rats, we also evaluated the intraperitoneal (IP) PK profle and compared it to the IV profile. We determined pharmacokinetics in C57BL/6 mice given IV (Figure 2A) or IP (Figure 2B) administrations of 75 mg/kg YK-4-279, which was the maximal solubility of compound in 20% Cremophor EL. […] In addition, drug levels in tumor were measured using SCID/bg mice with orthotopic xenografts that were treated with daily IV injections of (S)-YK-4-279 for 6 days. […]
Twenty Fox Chase SCID beige mice per sex were inoculated with 2 million of A4573 cells. Tumor volume was monitored every day by caliper. […]
(§2) The plasma and tumor sample analysis was performed using calibration standards and Quality Control (QC) samples prepared in control rat or mouse plasma and tumor tissues. […] The transitions monitored were 366 amu to 135 amu for YK-4-279 and 369 amu to 138 amu for the YK-4-279-d3 internal standard. YK-4-279 concentrations were calculated using peak area response ratios and a regression equation constructed from the concentrations and peak area response ratios of the calibration standards. The lower limit of quantitation was 5.0 ng/mL in plasma and 5.0 ¼g/g in tumor tissue. […]

[2] = Pharmacokinetics in C57BL/6 mice, IV or IP 75 mg/kg; format: in vivo; settings: IV 75 mg/kg
Description: as §1
as §2, with “tissue. The concentration-time profiles were evaluated by compartmental modeling and non-compartmental analysis using WinNonlin (Pharsight Corporation, Mountain View, CA).” for “tissue.”

COc1ccc(C(=O)CC2(O)C(=O)Nc3c(Cl)ccc(Cl)c32)cc1 (stereo not shown) [YK-4-279]
(S)-YK-4-279 Concentrations ([1]; 0.25% lecithin, 0% DMSO, 0% soybean oil): 10.5 ± 8.6 ¼M
(S)-YK-4-279 Concentrations ([1]; 1.2% lecithin, 0% DMSO, 10% soybean oil): 20.9 ± 22.8 ¼M
(S)-YK-4-279 Concentrations ([1]; 1.2% lecithin, 10% DMSO, 0% soybean oil): 35.8 ± 45.0 ¼M
(S)-YK-4-279 Concentrations ([1]; 1.2% lecithin, 10% DMSO, 10% soybean oil): 39.1 ± 54.6 ¼M
(S)-YK-4-279 Concentrations ([1]; 2.5% lecithin, 0% DMSO, 10% soybean oil): 19.8 ± 20.5 ¼M
(S)-YK-4-279 Concentrations ([1]; 2.5% lecithin, 10% DMSO, 0% soybean oil): 59.7 ± 58.6 ¼M
(S)-YK-4-279 Concentrations ([1]; 2.5% lecithin, 10% DMSO, 10% soybean oil): 21.3 ± 11.3 ¼M
Effect on xenograft tumor growth (A4573 xenografts; A4573 xenografts in SCID/bg mice, 75 mg/kg IV QD): tumors did not regress nor reduce their growth rate
Plasma levels 2 hours following the final IV bolus dose (A4573 xenografts; SCID/bg mice with A4573 xenografts, repeated IV injections): 1.5–18 ¼M
Time that peak levels would exceed 3 ¼M [2]: ~ 1 hour
